# Source: patent publication US7169955B2, “Perfluoroisopropylbenzene derivative” (Nihon Nohyaku Co., Ltd., priority 2000, dated 2007)
# Tests used:
# Format in all cases: in vivo
# [1] = tested on: bent grass (Agrostis spp.); assay: Herbicidal effect on upland weeds after emergence; settings: after emergence (1 to 2 leaved stage) spray, 5 kg/ha, 14 days after treatment
# Excerpt: (§1) Polyethylene-made vats having a size of 10 cm (length)×20 cm (width)×5 cm (height) were filled with soil, sown with the seeds of the upland weeds mentioned below and with seeds of soybean plant and wheat as upland crop plants, and then covered with soil. The plants were made to grow up until they reached the 1 to 2 leaved stage, after which an agent comprising a prescribed concentration of a compound obtained in Reference Example 1 as active ingredient was sprayed.
# (§2) Fourteen days after the treatment, the herbicidal effect was investigated, from which weed-killing rate was calculated in the same manner as in Reference Example 2 and the results were judged. At the same time, phytotoxicity on soybean plant and wheat was investigated and judged in the same manner as in Reference Example 2.
# [2] = tested on: monochoria (Monochoria veginalis); assay: Herbicidal effect on upland weeds after emergence; settings: after emergence (1 to 2 leaved stage) spray, 5 kg/ha, 14 days after treatment
# Excerpt: as §1, §2
# [3] = tested on: Arabidopsis thaliana; assay: Herbicidal effect on upland weeds after emergence; settings: after emergence (1 to 2 leaved stage) spray, 5 kg/ha, 14 days after treatment
# Excerpt: as §1, §2
# [4] = tested on: wheat; assay: Phytotoxicity on upland crop plants, after-emergence test; settings: after emergence spray, 5 kg/ha, 14 days after treatment
# Excerpt: as §1, §2
# [5] = tested on: soybean plant; assay: as above; settings: after emergence spray, 5 kg/ha, 14 days after treatment
# Excerpt: as §1, §2
# [6] = tested on: paddy rice; assay: Phytotoxicity on paddy rice (paddy field pre-emergence test); settings: 5 kg/ha, 21 days after treatment
# Description: (§3) Soil was filled into 1/10000 are pots and brought into a state of paddy field, in which seeds of barnyard grass (Echinochloa crus-galli Beauv.) and bulrush (Scirpus juncoides Roxb.) were made to be before germination. The soil in the pots were treated with a solution containing a predetermined dosage of a chemical agent comprising a compound obtained in Reference Example 1 as the active ingredient.
# (§4) Twenty one days after the treatment, the herbicidal effect was investigated, the result was compared with that in untreated plot to calculate the weedkilling rate, and the herbicidal effect was judged according to the following criterion.
# At the same time, phytotoxicity on paddy rice was investigated, and judged according to the following criterion.
# [7] = tested on: bent grass (Agrostis spp.); assay: Herbicidal effect on upland weeds pre-emergence; settings: upland pre-emergence spray, 5 kg/ha, 14 days after treatment
# Excerpt: (§5) Polyethylene-made vats having a size of 10 cm (length)×20 cm (width)×5 cm (height) were filled with soil, sown with seeds of Arabidopsis thialiana, bent grass (Agrostis spp.) and monochoria (Monochoria veginalis), and with seeds of wheat and soybean plant as upland crop plants, and then covered with soil. Then, a liquid preparation of an agent comprising a prescribed concentration of a compound obtained in Reference Example 1 as active ingredient was sprayed.
# (§6) Fourteen days after the treatment, the herbicidal effect was investigated, from which weed-killing rate was calculated in the same manner as in Reference Example 2, and the herbicidal effect was judged.
# [8] = tested on: monochoria (Monochoria veginalis); assay: Herbicidal effect on upland weeds pre-emergence; settings: upland pre-emergence spray, 5 kg/ha, 14 days after treatment
# Excerpt: as §5, §6
# [9] = tested on: Arabidopsis thaliana; assay: Herbicidal effect on upland weeds pre-emergence; settings: upland pre-emergence spray, 5 kg/ha, 14 days after treatment
# Excerpt: as §5, §6
# [10] = tested on: barnyard grass (Echinochloa crus-galli Beauv.); assay: Herbicidal effect on paddy field weeds pre-emergence; settings: paddy soil treatment pre-emergence, 5 kg/ha, 21 days after treatment
# Description: as §3, §4
# [11] = tested on: bulrush (Scirpus juncoides Roxb.); assay: as above; settings: paddy soil treatment pre-emergence, 5 kg/ha, 21 days after treatment
# Description: as §3, §4
# [12] = tested on: wheat; assay: Phytotoxicity on upland crop plants, pre-emergence test; settings: upland pre-emergence spray, 5 kg/ha, 14 days after treatment
# Excerpt: as §5, §6
# (§7) At the same time, phytotoxicity on soybean plant and wheat was investigated and judged according to the criterion mentioned in Reference Example 1.
# [13] = tested on: soybean plant; assay: as above; settings: upland pre-emergence spray, 5 kg/ha, 14 days after treatment
# Excerpt: as §5, §6, §7
compound,measurement,setting,value
"CN(C)C(=O)Nc1ccc(C(F)(C(F)(F)F)C(F)(F)F)cc1 [Reference Example 1, 1,1-dimethyl-3-(4-heptafluoroisopropylphenyl)urea]",herbicidal effect (rating),[1],3 (Weedkilling rate is 70–89%.)
same,herbicidal effect (rating),[2],3 (Weedkilling rate is 70–89%.)
same,herbicidal effect (rating),[3],5 (Weedkilling rate is 100%.)
same,phytotoxicity (rating),[4],0 (Weedkilling rate is 0–20 (No phytotoxicity).)
same,phytotoxicity (rating),[5],0 (Weedkilling rate is 0–20 (No phytotoxicity).)
same,phytotoxicity (rating),[6],0 (Weedkilling rate is 0–20 (No phytotoxicity).)
same,herbicidal effect (rating),[7],4 (Weedkilling rate is 90–99%.)
same,herbicidal effect (rating),[8],5 (Weedkilling rate is 100%.)
same,herbicidal effect (rating),[9],5 (Weedkilling rate is 100%.)
same,herbicidal effect (rating),[10],4 (Weedkilling rate is 90–99%.)
same,herbicidal effect (rating),[11],2 (Weedkilling rate is 40–69%.)
same,phytotoxicity (rating),[12],0 (Weedkilling rate is 0–20 (No phytotoxicity).)
same,phytotoxicity (rating),[13],0 (Weedkilling rate is 0–20 (No phytotoxicity).)
